The test system of this experiment is K12877-001-R-J1-PDC complex spheroid viability. The experiment in a line: Anticancer human tumor K12877-001-R-J1-PDC patient-derived lung adenocarcinoma cell line growth inhibition [RAS]. Conditions: for viability, T/C: stronger effect = lower value. The method in brief:
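Multi-cell-type spheroids: tumor cells plus HUVEC endothelial cells and mesenchymal stem cells. RAS-pathway inhibitors were combined with targeted agents, each dosed in half-log steps down from clinical Cmax, or from 10 microM when Cmax was unknown.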

Setting [1] is: curve of first compound, second compound 0.0316 µM.
The mark [2] stands for this setting: curve of first compound, second compound 0.1 µM.
[3] abbreviates: curve of first compound, second compound 0.316 µM.
[4] abbreviates: curve of first compound, second compound 1 µM.
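Note: spheroids exposed to agents for one week before readout.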
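Throughout, for viability, T/C: tumour cells co-cultured with HUVEC and mesenchymal stem cells in spheroids.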

In the case of `NC1c2ccccc2OC12CCN(c1cnc3c(N4CCCc5ncccc54)n[nH]c3n1)CC2` (stereo unspecified) + C=CC(=O)N1CCN(c2nc(OCC3CCCN3C)nc3c(F)c(-c4nc(N)cc(C)c4C(F)(F)F)c(Cl)cc23)C(C)C1, the IC50 was over 10000 nM (curve of first compound, second compound 0.00316 µM); 8900 nM (curve of first compound, second compound 0.01 µM); 6880 nM under setting [1]; 5240 nM under setting [2]; 5890 nM under setting [3]; 9970 nM under setting [4]. The viability, T/C runs as follows: (second compound 0.00316 µM, first compound 0.0316 µM) 82.2%; (second compound 0.00316 µM, first compound 0.1 µM) 89.4%; (second compound 0.00316 µM, first compound 0.316 µM) 83.9%; (second compound 0.00316 µM, first compound 1 µM) 84.5%; (second compound 0.00316 µM, first compound 3.16 µM) 63.4%; (second compound 0.00316 µM, first compound 10 µM) 52.7%. Also, the viability, T/C (second compound 0.01 µM, first compound 0.0316 µM) was 82.7%; the viability, T/C (second compound 0.01 µM, first compound 0.1 µM) was 92.4%; the viability, T/C (second compound 0.01 µM, first compound 0.316 µM) was 84.6%; the viability, T/C (second compound 0.01 µM, first compound 1 µM) was 78.1%; the viability, T/C (second compound 0.01 µM, first compound 3.16 µM) is 65.5%; the viability, T/C (second compound 0.01 µM, first compound 10 µM) was 48.2%. Besides, the viability, T/C (second compound 0.0316 µM, first compound 0.0316 µM) is 89.8%; the viability, T/C (second compound 0.0316 µM, first compound 0.1 µM) is 79.6%; the viability, T/C (second compound 0.0316 µM, first compound 0.316 µM) is 75.4%; the viability, T/C (second compound 0.0316 µM, first compound 1 µM) was 69.3%; the viability, T/C (second compound 0.0316 µM, first compound 3.16 µM) was 57.5%; the viability, T/C (second compound 0.0316 µM, first compound 10 µM) is 45.9%. Besides, the viability, T/C runs as follows: (second compound 0.1 µM, first compound 0.0316 µM) 97.3%; (second compound 0.1 µM, first compound 0.1 µM) 79.3%; (second compound 0.1 µM, first compound 0.316 µM) 67.4%; (second compound 0.1 µM, first compound 1 µM) 64.5%; (second compound 0.1 µM, first compound 3.16 µM) 54.7%; (second compound 0.1 µM, first compound 10 µM) 44.4%. Moreover, the viability, T/C was 81.5% (second compound 0.316 µM, first compound 0.0316 µM); 73.5% (second compound 0.316 µM, first compound 0.1 µM); 70.3% (second compound 0.316 µM, first compound 0.316 µM); 63.4% (second compound 0.316 µM, first compound 1 µM); 48.9% (second compound 0.316 µM, first compound 3.16 µM); 48.9% (second compound 0.316 µM, first compound 10 µM). Further, the viability, T/C is 81.9% (second compound 1 µM, first compound 0.0316 µM); 95.9% (second compound 1 µM, first compound 0.1 µM); 66.7% (second compound 1 µM, first compound 0.316 µM); 76.7% (second compound 1 µM, first compound 1 µM); 55.5% (second compound 1 µM, first compound 3.16 µM); 50.7% (second compound 1 µM, first compound 10 µM).
Consider `CCC(CC)c1cc(NC2CCC(N)C2)n2nccc2n1` (stereo unspecified), for which the viability, T/C is 104% [middle of 4 runs] (compound 0.0316 µM); 87.1% [middle of 4 runs] (compound 0.1 µM); 103% [middle of 4 runs] (compound 0.316 µM); 86.7% [middle of 4 runs] (compound 1 µM); 2.99% [middle of 4 runs] (compound 3.16 µM); 1.41% [middle of 4 runs] (compound 10 µM). Further, the IC50 (curve of compound) was 1.65 µM [middle of 4 runs].
With `Cc1nc(N2CCC3(CC2)COC(C)C3N)c(CO)nc1Sc1ccnc(N)c1Cl` (stereo unspecified), the viability, T/C (compound 0.1 µM) was 92.8% [middle of 4 runs]; the viability, T/C (compound 0.316 µM) is 92.2% [middle of 4 runs]; the viability, T/C (compound 1 µM) is 93.8% [middle of 4 runs]; the viability, T/C (compound 10 µM) is 79.5% [middle of 4 runs]. In addition, the IC50 (curve of compound) was over 10000 nM.
`CC1(C)CCC(Nc2ncc(C(F)(F)F)c(-c3c[nH]c4c(P(C)(C)=O)c(C#N)ccc34)n2)CN1` (stereo unspecified) + C#Cc1c(F)ccc2cc(O)cc(-c3ncc4c(N5CC6CCC(C5)N6)nc(OCC56CCCN5CC(F)C6)nc4c3F)c12: the IC50 runs as follows: under setting [1], 55.5 nM; under setting [2], 34.6 nM; under setting [3], 55.9 nM; under setting [4], 50.3 nM; (curve of first compound, second compound 3.16 µM) 84.3 nM; (curve of first compound, second compound 10 µM) 187 nM. In addition, the viability, T/C is, setting by setting: (second compound 0.0316 µM, first compound 0.000949 µM) 93.6%; (second compound 0.0316 µM, first compound 0.003 µM) 83.7%; (second compound 0.0316 µM, first compound 0.00949 µM) 89.6%; (second compound 0.0316 µM, first compound 0.03 µM) 65.2%; (second compound 0.0316 µM, first compound 0.0949 µM) 37.2%; (second compound 0.0316 µM, first compound 0.3 µM) 32%. In addition, the viability, T/C (second compound 0.1 µM, first compound 0.000949 µM) is 97.6%; the viability, T/C (second compound 0.1 µM, first compound 0.003 µM) was 100%; the viability, T/C (second compound 0.1 µM, first compound 0.00949 µM) was 83.8%; the viability, T/C (second compound 0.1 µM, first compound 0.03 µM) is 52.3%; the viability, T/C (second compound 0.1 µM, first compound 0.0949 µM) is 34.5%; the viability, T/C (second compound 0.1 µM, first compound 0.3 µM) was 29.1%. The viability, T/C is, setting by setting: (second compound 0.316 µM, first compound 0.000949 µM) 89.9%; (second compound 0.316 µM, first compound 0.003 µM) 92%; (second compound 0.316 µM, first compound 0.00949 µM) 87%; (second compound 0.316 µM, first compound 0.03 µM) 63.3%; (second compound 0.316 µM, first compound 0.0949 µM) 39%; (second compound 0.316 µM, first compound 0.3 µM) 32.9%. The viability, T/C (second compound 1 µM, first compound 0.000949 µM) was 96.9%; the viability, T/C (second compound 1 µM, first compound 0.003 µM) was 87.5%; the viability, T/C (second compound 1 µM, first compound 0.00949 µM) is 104%; the viability, T/C (second compound 1 µM, first compound 0.03 µM) is 60.8%; the viability, T/C (second compound 1 µM, first compound 0.0949 µM) is 40%; the viability, T/C (second compound 1 µM, first compound 0.3 µM) was 33.6%. Also, the viability, T/C was 100% (second compound 3.16 µM, first compound 0.000949 µM); 93.6% (second compound 3.16 µM, first compound 0.003 µM); 86.6% (second compound 3.16 µM, first compound 0.00949 µM); 82.5% (second compound 3.16 µM, first compound 0.03 µM); 45.6% (second compound 3.16 µM, first compound 0.0949 µM); 39.9% (second compound 3.16 µM, first compound 0.3 µM). In addition, the viability, T/C was 99.8% (second compound 10 µM, first compound 0.000949 µM); 88.7% (second compound 10 µM, first compound 0.003 µM); 73.7% (second compound 10 µM, first compound 0.00949 µM); 72.9% (second compound 10 µM, first compound 0.03 µM); 56.9% (second compound 10 µM, first compound 0.0949 µM); 44.2% (second compound 10 µM, first compound 0.3 µM).

Broadly, the IC50 is the concentration at which inhibition is half-maximal. Usually viability, T/C stands for the ratio of treated to control.
